From patent publication US11053204B2, “Pyrimidinyloxy benzene derivatives as herbicides” (FMC Corporation, priority 2015, dated 2021)

Assays:
Type in all cases: in vivo
[1] = tested on: ryegrass, Italian (Italian ryegrass, Lolium multiflorum); assay: Test C postemergence, plant response rating; details: for Ryegrass, Italian plant response rating: scale 0 to 100 (0 no effect, 100 complete control)
Method in brief: (§1)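 Both timings shared one formulation, a non-phytotoxic solvent mixture with surfactant, and a greenhouse period of 13 to 15 d. Preemergence used seeded loam/sand or silt loam soil, postemergence used 2 to 18 cm plants; visual ratings ran from 0 (no effect) to 100 (complete control).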

[2] = tested on: galium (catchweed bedstraw, Galium aparine); assay: Test C postemergence, plant response rating; details: for Galium plant response rating: scale 0 to 100 (0 no effect, 100 complete control)
Method in brief: as §1

[3] = tested on: wheat (winter wheat, Triticum aestivum); assay: Test C postemergence, plant response rating
Method in brief: as §1

[4] = tested on: chickweed (common chickweed, Stellaria media); assay: Test C postemergence, plant response rating; details: for Chickweed plant response rating: scale 0 to 100 (0 no effect, 100 complete control)
Method in brief: as §1

[5] = tested on: blackgrass (Alopecurus myosuroides); assay: Test C postemergence, plant response rating; details: for Plant response rating, Blackgrass: scale 0 to 100; for Blackgrass plant response rating: scale 0 to 100 (0 no effect, 100 complete control)
Method in brief: as §1

soybean (Glycine max) = assay: Test C postemergence, plant response rating; details: for Soybean plant response rating: scale 0 to 100 (0 no effect, 100 complete control)
Method in brief: as §1

[6] = tested on: oilseed rape (Brassica napus); assay: Test C postemergence, plant response rating; details: for Oilseed Rape plant response rating: scale 0 to 100 (0 no effect, 100 complete control)
Method in brief: as §1

[7] = tested on: waterhemp (common waterhemp, Amaranthus rudis); assay: Test C postemergence, plant response rating
Method in brief: as §1

[8] = tested on: foxtail, giant (giant foxtail, Setaria faberii); assay: Test C postemergence, plant response rating; details: for Foxtail, Giant plant response rating: scale 0 to 100 (0 no effect, 100 complete control)
Method in brief: as §1

[9] = tested on: Italian ryegrass (Lolium multiflorum); assay: Test A postemergence, visual injury rating; details: 0 to 100 scale, 0 is no effect, 100 is complete control, approximately 10 days
Method in brief: (§2)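 Scoring: eye-based comparison with untreated controls, 0 for no effect through 100 for complete control, at about day 10. Treatments: directed soil spray preemergence; foliar spray postemergence on 2–10 cm plants at the one- to two-leaf stage. Medium: loam soil with sand.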

[10] = tested on: barnyardgrass (Echinochloa crus-galli); assay: Test A postemergence, visual injury rating; details: 0 is no effect, 100 is complete control
Method in brief: as §2

[11] = tested on: giant foxtail (Setaria faberii); assay: Test A postemergence, visual injury rating; details: 0 is no effect, 100 is complete control
Method in brief: as §2

[12] = tested on: galium (catchweed bedstraw, Galium aparine); assay: Test A postemergence, visual injury rating; details: 0 is no effect, 100 is complete control
Method in brief: as §2

[13] = tested on: wheat (Triticum aestivum); assay: Test A postemergence, visual injury rating; details: 0 to 100 scale, 0 is no effect, 100 is complete control, approximately 10 days
Method in brief: as §2

[14] = tested on: blackgrass (Alopecurus myosuroides); assay: Test A postemergence, visual injury rating; details: 0 is no effect, 100 is complete control
Method in brief: as §2

[15] = tested on: pigweed (Amaranthus retroflexus); assay: Test A postemergence, visual injury rating; details: 0 to 100 scale, 0 is no effect, 100 is complete control, approximately 10 days
Method in brief: as §2

kochia (Kochia scoparia) = assay: Test A postemergence, visual injury rating; details: 0 to 100 scale, 0 is no effect, 100 is complete control, approximately 10 days
Method in brief: as §2

[16] = tested on: ragweed (common ragweed, Ambrosia elatior); assay: Test A postemergence, visual injury rating; details: 0 to 100 scale, 0 is no effect, 100 is complete control, approximately 10 days
Method in brief: as §2

corn (Zea mays) = assay: Test A postemergence, visual injury rating; details: 0 is no effect, 100 is complete control
Method in brief: as §2

[17] = 125 g ai/ha, scale 0 to 100 (0 no effect, 100 complete control)
[18] = 31 g ai/ha, 0 to 100 scale, approximately 10 days

SMILES: N#Cc1cccc(Oc2ncc(Cl)cn2)c1COCCC(F)(F)F [Compound 80]
- Plant response rating, Ryegrass, Italian ([1]; 16 g ai/ha, scale of 0 to 100): 0
- Plant response rating, Ryegrass, Italian ([1]; 31 g ai/ha, scale 0 to 100): 0
- Ryegrass, Italian plant response rating ([1]; 62 g ai/ha): 5
- Ryegrass, Italian plant response rating ([1]; 125 g ai/ha): 5
- Plant response rating, Galium ([2]; 16 g ai/ha, scale of 0 to 100): 70
- Plant response rating, Galium ([2]; 31 g ai/ha, scale 0 to 100): 75
- Galium plant response rating ([2]; 62 g ai/ha): 85
- Galium plant response rating ([2]; 125 g ai/ha): 90
- Plant response rating, Wheat ([3]; 16 g ai/ha, scale of 0 to 100): 0
- Plant response rating, Wheat ([3]; 31 g ai/ha, scale 0 to 100): 0
- Wheat plant response rating [3, 17]: 15
- Plant response rating, Chickweed ([4]; 16 g ai/ha, scale of 0 to 100): 60
- Plant response rating, Chickweed ([4]; 31 g ai/ha, scale 0 to 100): 75
- Chickweed plant response rating ([4]; 62 g ai/ha): 75
- Chickweed plant response rating ([4]; 125 g ai/ha): 90
- Plant response rating, Blackgrass ([5]; 16 g ai/ha): 0
- Plant response rating, Blackgrass ([5]; 31 g ai/ha): 5
- Blackgrass plant response rating ([5]; 62 g ai/ha): 5
- Blackgrass plant response rating ([5]; 125 g ai/ha): 25
- Plant response rating, Soybean (soybean (Glycine max); 16 g ai/ha, scale of 0 to 100): 60
- Plant response rating, Soybean (soybean (Glycine max); 31 g ai/ha, scale 0 to 100): 75
- Soybean plant response rating (soybean (Glycine max); 62 g ai/ha): 90
- Soybean plant response rating (soybean (Glycine max); 125 g ai/ha): 95
- Plant response rating, Oilseed Rape ([6]; 16 g ai/ha, scale of 0 to 100): 50
- Plant response rating, Oilseed Rape ([6]; 31 g ai/ha, scale 0 to 100): 60
- Oilseed Rape plant response rating ([6]; 62 g ai/ha): 65
- Oilseed Rape plant response rating ([6]; 125 g ai/ha): 70
- Plant response rating, Waterhemp ([7]; 16 g ai/ha, scale of 0 to 100): 80
- Plant response rating, Waterhemp ([7]; 31 g ai/ha, scale 0 to 100): 80
- Waterhemp plant response rating [7, 17]: 90
- Plant response rating, Foxtail, Giant ([8]; 16 g ai/ha, scale of 0 to 100): 5
- Plant response rating, Foxtail, Giant ([8]; 31 g ai/ha, scale 0 to 100): 10
- Foxtail, Giant plant response rating ([8]; 62 g ai/ha): 10
- Foxtail, Giant plant response rating ([8]; 125 g ai/ha): 15
- Ryegrass, Italian plant response rating ([9]; 31 g ai/ha): 0
- Ryegrass, Italian plant response rating ([9]; 125 g ai/ha): 50
- Barnyardgrass plant response rating [10, 18]: 30
- Barnyardgrass plant response rating (0 to 100 scale) ([10]; 125 g ai/ha): 90
- Foxtail, Giant plant response rating [11, 18]: 30
- Foxtail, Giant plant response rating (0 to 100 scale) ([11]; 125 g ai/ha): 90
- Galium plant response rating [12, 18]: 60
- Galium plant response rating (0 to 100 scale) ([12]; 125 g ai/ha): 90
- Wheat plant response rating ([13]; 31 g ai/ha): 0
- Wheat plant response rating ([13]; 125 g ai/ha): 40
- Blackgrass plant response rating [14, 18]: 30
- Blackgrass plant response rating (0 to 100 scale) ([14]; 125 g ai/ha): 90
- Pigweed plant response rating ([15]; 31 g ai/ha): 80
- Pigweed plant response rating ([15]; 125 g ai/ha): 100
- Kochia plant response rating (kochia (Kochia scoparia); 31 g ai/ha): 50
- Kochia plant response rating (kochia (Kochia scoparia); 125 g ai/ha): 70
- Ragweed plant response rating ([16]; 31 g ai/ha): 10
- Ragweed plant response rating ([16]; 125 g ai/ha): 30
- Corn plant response rating (corn (Zea mays); [18]): 10
- Corn plant response rating (0 to 100 scale) (corn (Zea mays); 125 g ai/ha): 60
